We go through 31 compounds from US20230391739A1, “ARYL DERIVATIVES FOR TREATING TRPM3 MEDIATED DISORDERS” (Katholieke Universiteit Leuven, priority 2020, published 2023).

The assay addresses T1, mouse TRPM3α2 (mTRPM3) ion channel (Mus musculus, UniProt J9SQF3).
T1 construct: expressed in transfected cells; host or cells: flip-in HEK293
In words: TRPM3 ion channel driven Ca2+ uptake, Fluo-4 AM assay, PS-stimulated (mTRPM3). The assay is classed as cell-based. The settings on record: TRPM3 overexpressing flip-in HEK293 cells stimulated with Pregnenolone sulfate (PS) 50 μM, activity ranges A, B, C. The method in brief: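 Ca²⁺ influx through mouse TRPM3α2, opened by 50 μM pregnenolone sulfate, was tracked with Fluo-4 AM in stably transfected HEK293 cells read directly after seeding onto pre-dispensed compound.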

T1 sequence (J9SQF3 1-1709 isoform J9SQF3-12): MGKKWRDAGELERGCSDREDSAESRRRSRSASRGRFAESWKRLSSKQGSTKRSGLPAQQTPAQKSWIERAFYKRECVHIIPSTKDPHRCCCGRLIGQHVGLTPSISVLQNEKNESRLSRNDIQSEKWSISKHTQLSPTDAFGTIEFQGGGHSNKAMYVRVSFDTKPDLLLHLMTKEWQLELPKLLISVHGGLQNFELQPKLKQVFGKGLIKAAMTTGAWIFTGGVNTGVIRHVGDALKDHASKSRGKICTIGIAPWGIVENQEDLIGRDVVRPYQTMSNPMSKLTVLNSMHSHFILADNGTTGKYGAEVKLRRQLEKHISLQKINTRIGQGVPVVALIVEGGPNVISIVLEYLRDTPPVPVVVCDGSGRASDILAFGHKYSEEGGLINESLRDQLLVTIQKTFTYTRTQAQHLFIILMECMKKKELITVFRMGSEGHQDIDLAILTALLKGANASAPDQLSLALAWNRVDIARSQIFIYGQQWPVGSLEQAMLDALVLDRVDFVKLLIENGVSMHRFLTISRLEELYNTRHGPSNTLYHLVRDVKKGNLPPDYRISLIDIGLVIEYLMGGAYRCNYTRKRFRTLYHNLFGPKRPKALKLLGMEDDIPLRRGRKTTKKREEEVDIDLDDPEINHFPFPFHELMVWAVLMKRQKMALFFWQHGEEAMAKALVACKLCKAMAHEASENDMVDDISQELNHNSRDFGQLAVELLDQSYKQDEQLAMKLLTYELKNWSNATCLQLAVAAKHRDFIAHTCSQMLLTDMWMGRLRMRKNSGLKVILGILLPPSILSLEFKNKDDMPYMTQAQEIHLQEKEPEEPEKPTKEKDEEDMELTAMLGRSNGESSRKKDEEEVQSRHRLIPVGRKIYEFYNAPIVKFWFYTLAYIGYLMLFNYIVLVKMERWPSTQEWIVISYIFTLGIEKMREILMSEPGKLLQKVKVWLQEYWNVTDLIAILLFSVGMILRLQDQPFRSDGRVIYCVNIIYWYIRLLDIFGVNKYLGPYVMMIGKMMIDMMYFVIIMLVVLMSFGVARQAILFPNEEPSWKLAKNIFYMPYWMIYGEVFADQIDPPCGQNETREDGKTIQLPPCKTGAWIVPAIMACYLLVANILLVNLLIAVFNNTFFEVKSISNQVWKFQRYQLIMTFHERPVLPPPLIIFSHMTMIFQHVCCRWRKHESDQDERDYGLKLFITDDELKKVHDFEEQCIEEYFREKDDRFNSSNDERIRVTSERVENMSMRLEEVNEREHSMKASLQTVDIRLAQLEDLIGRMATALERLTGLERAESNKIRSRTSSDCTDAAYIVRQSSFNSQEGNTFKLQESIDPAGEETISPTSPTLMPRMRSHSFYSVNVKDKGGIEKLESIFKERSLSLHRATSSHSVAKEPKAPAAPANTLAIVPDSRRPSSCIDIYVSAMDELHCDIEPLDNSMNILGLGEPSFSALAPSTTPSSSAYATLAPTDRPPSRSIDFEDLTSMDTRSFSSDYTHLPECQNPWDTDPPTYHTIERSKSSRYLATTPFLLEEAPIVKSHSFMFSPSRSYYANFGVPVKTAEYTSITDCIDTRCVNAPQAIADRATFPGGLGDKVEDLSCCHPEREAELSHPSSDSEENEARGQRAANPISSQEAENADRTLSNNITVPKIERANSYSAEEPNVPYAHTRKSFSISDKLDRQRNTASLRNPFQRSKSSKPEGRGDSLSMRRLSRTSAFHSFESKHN

Take `Cc1oc2ccc(OCc3ccccc3)cc2c1C(=O)NC1CCNC(=O)C1` (stereo not shown) [Cpd 108, 5-(benzyloxy)-2-methyl-N-(2-oxopiperidin-4-yl)benzofuran-3-carboxamide]: the IC50 (usually the concentration needed to halve the response being measured) lay within 1000 to 20000 nM.
In turn, `Cc1oc2ccc(OCc3ccccc3)cc2c1C(=O)N[C@H]1CCCNC1=O` [Cpd 109, (S)-5-(benzyloxy)-2-methyl-N-(2-oxopiperidin-3-yl)benzofuran-3-carboxamide] gave an IC50 of less than 1000 nM.
On to `Cc1oc2ccc(OCc3ccccc3)cc2c1C(=O)NC1CC(=O)N(C)C1` (stereo not shown) [Cpd 110, 5-(benzyloxy)-2-methyl-N-(1-methyl-5-oxopyrrolidin-3-yl)benzofuran-3-carboxamide], for which the IC50 lay within 1000 to 20000 nM.
`Cc1oc2ccc(OCc3ccccc3)cc2c1C(=O)NC1CCC(=O)NC1` (stereo not shown) [Cpd 111, 5-(benzyloxy)-2-methyl-N-(6-oxopiperidin-3-yl)benzofuran-3-carboxamide] came in with an IC50 of 1000 to 20000 nM.
With `Cc1oc2ccc(OCc3ccccc3)cc2c1C(=O)NCC1CCC(=O)N1` (stereo not shown) [Cpd 112, 5-(benzyloxy)-2-methyl-N-((5-oxopyrrolidin-2-yl)methyl)benzofuran-3-carboxamide], the IC50 was less than 1000 nM.
To `Cc1oc2ccc(OCc3ccccc3)cc2c1C(=O)NC1CCCNC1=O` (stereo not shown) [Cpd 113, 5-(benzyloxy)-2-methyl-N-(2-oxopiperidin-3-yl)benzofuran-3-carboxamide] belongs less than 1000 nM; to `Cc1oc2ccc(OCc3ccccc3)cc2c1C(=O)N[C@H]1CC[C@@H](N)CC1` [Cpd 116, N-(cis-4-aminocyclohexyl)-5-(benzyloxy)-2-methylbenzofuran-3-carboxamide], less than 1000 nM; to `Cc1oc2ccc(OCc3ccccc3)cc2c1C(=O)NC1CCN(C)CC1` [Cpd 117, 5-(benzyloxy)-2-methyl-N-(1-methylpiperidin-4-yl)benzofuran-3-carboxamide], less than 1000 nM.
`Cc1oc2ccc(OCc3ccccc3)cc2c1C(=O)N1CC[C@@H](N(C)C)C1` [Cpd 118, (R)-(5-(benzyloxy)-2-methylbenzofuran-3-yl)(3-(dimethylamino)pyrrolidin-1-yl)methanone]: the IC50 is greater than 20000 nM.
The result for `Cc1oc2ccc(OCc3ccccc3)cc2c1C(=O)NC1CCCNCC1` (stereo not shown) [Cpd 119, N-(azepan-4-yl)-5-(benzyloxy)-2-methylbenzofuran-3-carboxamide] reads less than 1000 nM; that for `Cc1oc2ccc(OCc3ccccc3)cc2c1C(=O)N[C@H]1CC[C@H](N)CC1` [Cpd 120, N-(trans-4-aminocyclohexyl)-5-(benzyloxy)-2-methylbenzofuran-3-carboxamide], 1000 to 20000 nM.
The result for `Cc1oc2ccc(OCc3ccccc3)cc2c1C(=O)NCC1CCNCC1` [Cpd 121, 5-(benzyloxy)-2-methyl-N-(piperidin-4-ylmethyl)benzofuran-3-carboxamide] reads 1000 to 20000 nM.
The result for `Cc1oc2ccc(OCc3ccccc3)cc2c1C(=O)NCC1CCOCC1` [Cpd 122, 5-(benzyloxy)-2-methyl-N-((tetrahydro-2H-pyran-4-yl)methyl)benzofuran-3-carboxamide] reads 1000 to 20000 nM; that for `Cc1oc2ccc(OCc3ccccc3)cc2c1C(=O)NC1CCC(O)CC1` (stereo not shown) [Cpd 123, 5-(benzyloxy)-N-(4-hydroxycyclohexyl)-2-methylbenzofuran-3-carboxamide], less than 1000 nM; that for `Cc1oc2ccc(OCc3ccccc3)cc2c1C(=O)N[C@H]1CC[C@H](O)CC1` [Cpd 124, 5-(benzyloxy)-N-(trans-4-hydroxycyclohexyl)-2-methylbenzofuran-3-carboxamide], less than 1000 nM.
Regarding `Cc1oc2ccc(OCc3ccccc3)cc2c1C(=O)N[C@H]1CC[C@@H](O)CC1` [Cpd 125, 5-(benzyloxy)-N-(cis-4-hydroxycyclohexyl)-2-methylbenzofuran-3-carboxamide], the IC50 was less than 1000 nM.
`Cc1oc2ccc(OCc3ccccc3)cc2c1C(=O)N[C@@H]1CN[C@H](CO)C1` [Cpd 126, 5-(benzyloxy)-N-((3S,5S)-5-(hydroxymethyl)pyrrolidin-3-yl)-2-methylbenzofuran-3-carboxamide]: the IC50 was less than 1000 nM.
For the compound `COc1cccc(COc2ccc3oc(C)c(C(=O)N[C@H]4CCNC4)c3c2)c1` [Cpd 127, (S)-5-((3-methoxybenzyl)oxy)-2-methyl-N-(pyrrolidin-3-yl)benzofuran-3-carboxamide], the IC50 was less than 1000 nM.
To `Cc1oc2ccc(OCc3ccccc3)cc2c1C(=O)NCC1(CO)COC1` [Cpd 128, 5-(benzyloxy)-N-((3-(hydroxymethyl)oxetan-3-yl)methyl)-2-methylbenzofuran-3-carboxamide] belongs less than 1000 nM.
For `Cc1oc2ccc(OCc3ccccc3F)cc2c1C(=O)NC1CCNC1=O` (stereo not shown) [Cpd 129, 5-((2-fluorobenzyl)oxy)-2-methyl-N-(2-oxopyrrolidin-3-yl)benzofuran-3-carboxamide], the IC50 is less than 1000 nM.
With `Cc1oc2ccc(OCc3ccccc3)cc2c1C(=O)NC1CCNCC1F` (stereo not shown) [Cpd 131, 5-(benzyloxy)-N-(3-fluoropiperidin-4-yl)-2-methylbenzofuran-3-carboxamide], the IC50 is less than 1000 nM.
For the compound `Cc1oc2ccc(OCc3cccc(F)c3)cc2c1C(=O)NCC1CCCO1` (stereo not shown) [Cpd 132, 5-((3-fluorobenzyl)oxy)-2-methyl-N-((tetrahydrofuran-2-yl)methyl)benzofuran-3-carboxamide], the IC50 is less than 1000 nM.
Take `Cc1oc2ccc(OCc3ccccc3)cc2c1C(=O)NS(=O)(=O)C1CC1` [Cpd 133, 5-(benzyloxy)-N-(cyclopropylsulfonyl)-2-methylbenzofuran-3-carboxamide]: the IC50 was less than 1000 nM.
For `Cc1oc2ccc(OCc3ccccc3)cc2c1C(=O)NCCc1ccccc1` [Cpd 134, 5-(benzyloxy)-2-methyl-N-phenethylbenzofuran-3-carboxamide], the IC50 was greater than 20000 nM.
`Cc1oc2ccc(OCc3cccc(F)c3F)cc2c1C(=O)N[C@H]1CCNC1` [Cpd 135, (S)-5-((2,3-difluorobenzyl)oxy)-2-methyl-N-(pyrrolidin-3-yl)benzofuran-3-carboxamide] displayed an IC50 of less than 1000 nM.
The result for `Cc1oc2ccc(OCc3c(F)cccc3F)cc2c1C(=O)N[C@H]1CCNC1` [Cpd 136, (S)-5-((2,6-difluorobenzyl)oxy)-2-methyl-N-(pyrrolidin-3-yl)benzofuran-3-carboxamide] reads less than 1000 nM.
To `Cc1oc2ccc(OCc3ccccc3)cc2c1C(=O)NC1CNCC1(F)F` (stereo not shown) [Cpd 137, 5-(benzyloxy)-N-(4,4-difluoropyrrolidin-3-yl)-2-methylbenzofuran-3-carboxamide] belongs less than 1000 nM; to `Cc1oc2ccc(OCc3ccccc3)cc2c1C(=O)NCCc1ccccn1` [Cpd 138, 5-(benzyloxy)-2-methyl-N-(2-(pyridin-2-yl)ethyl)benzofuran-3-carboxamide], 1000 to 20000 nM.
The compound `Cc1oc2ccc(OCc3ccccc3)cc2c1C(=O)NCCc1ccncc1` [Cpd 139, 5-(benzyloxy)-2-methyl-N-(2-(pyridin-4-yl)ethyl)benzofuran-3-carboxamide] yielded an IC50 of 1000 to 20000 nM.
To `Cc1oc2ccc(OCc3ccccc3)cc2c1C(=O)N[C@@H]1C[C@H]2CNC[C@H]2C1` [Cpd 140, 5-(benzyloxy)-2-methyl-N-(trans-octahydrocyclopenta[c]pyrrol-5-yl)benzofuran-3-carboxamide] belongs less than 1000 nM; to `Cc1oc2ccc(OCc3ccccc3)cc2c1C(=O)NC1CN2CCC1CC2` (stereo not shown) [Cpd 142, 5-(benzyloxy)-2-methyl-N-(quinuclidin-3-yl)benzofuran-3-carboxamide], less than 1000 nM.
